In EP2578210A1, “Rottlerin for the treatment of pulmonary hypertension and related diseases and disorders” (ATB Innovation Ltd., priority 2011, dated 2013):

Legend:
PKCδ = PKCδ (Homo sapiens, UniProt Q05655); details: in vitro studies; cited from earlier work
Kv7.2 = biological target: T1, Kv7.2 (Homo sapiens, UniProt O43526); assay: Two-electrode current recording of human KCNQ (Kv7) channels heterologously expressed in Xenopus laevis oocytes; assay type: cell-based; details: different concentrations
T1 construct: expressed in transfected cells; host or cells: Xenopus laevis oocytes
T1 sequence (O43526 whole entry): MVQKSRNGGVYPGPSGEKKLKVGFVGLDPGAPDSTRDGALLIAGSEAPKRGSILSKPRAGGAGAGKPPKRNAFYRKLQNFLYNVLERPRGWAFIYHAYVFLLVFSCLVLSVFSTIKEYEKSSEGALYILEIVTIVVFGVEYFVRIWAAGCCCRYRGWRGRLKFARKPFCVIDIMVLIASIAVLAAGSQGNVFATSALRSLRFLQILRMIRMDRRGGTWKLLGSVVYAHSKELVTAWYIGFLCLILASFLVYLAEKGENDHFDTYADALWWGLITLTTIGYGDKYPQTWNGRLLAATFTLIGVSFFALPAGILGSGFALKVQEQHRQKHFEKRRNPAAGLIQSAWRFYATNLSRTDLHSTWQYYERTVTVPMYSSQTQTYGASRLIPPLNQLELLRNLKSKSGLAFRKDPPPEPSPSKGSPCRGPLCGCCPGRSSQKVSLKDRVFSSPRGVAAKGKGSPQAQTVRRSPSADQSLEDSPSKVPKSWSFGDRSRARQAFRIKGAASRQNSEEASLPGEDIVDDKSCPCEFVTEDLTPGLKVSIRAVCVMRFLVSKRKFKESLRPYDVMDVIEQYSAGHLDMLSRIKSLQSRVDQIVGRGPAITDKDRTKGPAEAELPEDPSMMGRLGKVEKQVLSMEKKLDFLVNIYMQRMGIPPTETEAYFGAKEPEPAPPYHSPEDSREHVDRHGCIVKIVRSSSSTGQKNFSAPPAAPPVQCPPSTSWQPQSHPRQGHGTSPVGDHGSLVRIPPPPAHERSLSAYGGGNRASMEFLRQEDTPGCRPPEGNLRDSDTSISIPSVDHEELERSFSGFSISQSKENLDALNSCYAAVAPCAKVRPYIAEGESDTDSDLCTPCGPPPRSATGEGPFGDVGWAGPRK
Source text: (§1) Rottlerin was applied at different concentrations to the expressed Kv7 channels.

Kv7.4 = biological target: T2, Kv7.4 (Homo sapiens, UniProt P56696); assay: as above; assay type: cell-based
T2 construct: expressed in transfected cells; host or cells: Xenopus laevis oocytes
T2 sequence (P56696 whole entry): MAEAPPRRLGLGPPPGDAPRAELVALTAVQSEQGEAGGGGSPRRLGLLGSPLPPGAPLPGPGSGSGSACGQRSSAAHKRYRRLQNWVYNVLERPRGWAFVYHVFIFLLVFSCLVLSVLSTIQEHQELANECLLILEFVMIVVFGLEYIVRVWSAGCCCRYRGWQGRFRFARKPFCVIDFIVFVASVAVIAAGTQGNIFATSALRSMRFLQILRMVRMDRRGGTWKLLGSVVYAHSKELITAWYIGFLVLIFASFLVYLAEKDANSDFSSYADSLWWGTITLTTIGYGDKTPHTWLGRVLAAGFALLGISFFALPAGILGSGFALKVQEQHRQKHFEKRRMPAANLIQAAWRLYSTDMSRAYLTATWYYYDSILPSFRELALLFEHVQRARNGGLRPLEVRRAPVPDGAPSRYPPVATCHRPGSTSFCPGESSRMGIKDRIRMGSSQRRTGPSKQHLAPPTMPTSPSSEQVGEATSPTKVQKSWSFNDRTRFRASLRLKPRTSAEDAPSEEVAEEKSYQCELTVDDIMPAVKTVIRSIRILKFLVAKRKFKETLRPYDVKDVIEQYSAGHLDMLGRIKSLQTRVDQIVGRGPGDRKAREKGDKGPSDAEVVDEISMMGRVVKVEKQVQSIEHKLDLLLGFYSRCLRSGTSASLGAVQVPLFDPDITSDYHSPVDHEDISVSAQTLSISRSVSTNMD
Source text: as §1

Kv7.5 = biological target: T3, Kv7.5 (Homo sapiens, UniProt Q9NR82); assay: as above; assay type: cell-based; details: different concentrations
T3 construct: expressed in transfected cells; host or cells: Xenopus laevis oocytes
Source text: as §1

Kv7.1/KCNE1 = biological target: T4, Kv7.1/KCNE1 (Homo sapiens, UniProt P51787); assay: as above; assay type: cell-based
T4 construct: expressed in transfected cells; host or cells: Xenopus laevis oocytes
T4 sequence (P51787 whole entry): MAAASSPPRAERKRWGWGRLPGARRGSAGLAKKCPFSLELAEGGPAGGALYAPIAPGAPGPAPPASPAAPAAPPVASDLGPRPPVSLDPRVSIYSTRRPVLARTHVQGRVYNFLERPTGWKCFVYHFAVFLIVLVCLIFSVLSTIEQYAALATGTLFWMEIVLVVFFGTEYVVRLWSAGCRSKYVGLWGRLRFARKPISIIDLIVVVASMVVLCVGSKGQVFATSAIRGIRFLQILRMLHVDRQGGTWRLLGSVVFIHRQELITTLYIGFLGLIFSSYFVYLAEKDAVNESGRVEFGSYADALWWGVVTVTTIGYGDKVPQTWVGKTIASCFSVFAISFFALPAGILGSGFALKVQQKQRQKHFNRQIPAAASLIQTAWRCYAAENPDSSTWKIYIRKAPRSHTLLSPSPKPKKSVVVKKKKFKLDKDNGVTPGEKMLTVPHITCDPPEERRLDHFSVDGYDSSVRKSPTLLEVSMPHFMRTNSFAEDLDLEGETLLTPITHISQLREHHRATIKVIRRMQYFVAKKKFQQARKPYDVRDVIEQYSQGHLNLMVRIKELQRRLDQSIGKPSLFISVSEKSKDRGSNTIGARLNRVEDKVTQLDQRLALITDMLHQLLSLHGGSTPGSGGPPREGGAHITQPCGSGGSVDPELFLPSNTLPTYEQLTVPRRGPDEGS
Source text: as §1

Kv7.3 = biological target: T5, Kv7.3 (Homo sapiens, UniProt O43525); assay: as above; assay type: cell-based; details: different concentrations
T5 construct: expressed in transfected cells; host or cells: Xenopus laevis oocytes
T5 sequence (O43525 whole entry): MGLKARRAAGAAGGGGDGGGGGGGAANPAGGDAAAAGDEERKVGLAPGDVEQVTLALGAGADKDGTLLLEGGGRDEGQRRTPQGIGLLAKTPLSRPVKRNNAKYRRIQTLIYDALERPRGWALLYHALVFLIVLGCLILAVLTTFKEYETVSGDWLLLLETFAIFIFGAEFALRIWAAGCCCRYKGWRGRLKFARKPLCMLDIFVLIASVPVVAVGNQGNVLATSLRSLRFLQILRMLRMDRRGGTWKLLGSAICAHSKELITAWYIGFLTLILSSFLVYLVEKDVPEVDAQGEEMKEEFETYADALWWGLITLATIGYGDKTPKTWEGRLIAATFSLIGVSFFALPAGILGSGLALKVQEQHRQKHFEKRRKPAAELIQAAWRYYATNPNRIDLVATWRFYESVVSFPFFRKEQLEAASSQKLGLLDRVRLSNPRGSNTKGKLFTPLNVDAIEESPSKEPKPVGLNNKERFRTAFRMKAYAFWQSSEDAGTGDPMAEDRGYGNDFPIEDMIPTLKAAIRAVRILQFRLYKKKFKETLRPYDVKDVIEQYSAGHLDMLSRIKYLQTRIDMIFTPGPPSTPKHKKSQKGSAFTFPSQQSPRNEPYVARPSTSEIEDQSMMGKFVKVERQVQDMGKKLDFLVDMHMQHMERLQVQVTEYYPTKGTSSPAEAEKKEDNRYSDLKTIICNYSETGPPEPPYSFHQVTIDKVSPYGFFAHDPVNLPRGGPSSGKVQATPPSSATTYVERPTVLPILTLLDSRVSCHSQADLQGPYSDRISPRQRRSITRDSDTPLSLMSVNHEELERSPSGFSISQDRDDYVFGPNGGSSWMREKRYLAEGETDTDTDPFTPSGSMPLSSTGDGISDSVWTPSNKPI
Source text: as §1

Kv7.1 = biological target: T6, Kv7.1 (Homo sapiens, UniProt P51787); assay: as above; assay type: cell-based
T6 construct: expressed in transfected cells; host or cells: Xenopus laevis oocytes
T6 sequence (P51787 whole entry): as the sequence (P51787 whole entry) above
Source text: as §1

other PKC isozymes = details: in vitro studies; cited from earlier work

PKCδ, sequence (Q05655 whole entry): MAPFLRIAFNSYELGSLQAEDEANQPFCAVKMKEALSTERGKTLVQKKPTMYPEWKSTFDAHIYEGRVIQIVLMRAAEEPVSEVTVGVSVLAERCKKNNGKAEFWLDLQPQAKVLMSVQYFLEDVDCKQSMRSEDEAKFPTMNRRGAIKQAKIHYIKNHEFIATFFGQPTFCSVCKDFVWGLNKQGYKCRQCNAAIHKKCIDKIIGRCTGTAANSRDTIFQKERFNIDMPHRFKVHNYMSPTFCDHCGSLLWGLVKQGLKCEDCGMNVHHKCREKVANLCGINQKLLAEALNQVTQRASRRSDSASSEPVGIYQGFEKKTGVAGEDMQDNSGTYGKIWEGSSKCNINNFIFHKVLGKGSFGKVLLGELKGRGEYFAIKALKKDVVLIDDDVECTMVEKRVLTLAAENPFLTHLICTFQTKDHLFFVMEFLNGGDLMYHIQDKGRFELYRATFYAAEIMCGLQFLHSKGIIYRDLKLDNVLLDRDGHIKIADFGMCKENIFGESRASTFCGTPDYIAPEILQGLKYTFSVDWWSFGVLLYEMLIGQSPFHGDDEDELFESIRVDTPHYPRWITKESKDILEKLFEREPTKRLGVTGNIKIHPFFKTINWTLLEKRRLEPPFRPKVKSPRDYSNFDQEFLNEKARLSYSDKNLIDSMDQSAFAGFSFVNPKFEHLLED

CC(=O)c1c(O)c(C)c(O)c(Cc2c(O)c3c(c(C(=O)/C=C/c4ccccc4)c2O)OC(C)(C)C=C3)c1O [rottlerin, 5,7-dihydroxy-2,2-dimethyl-6-(2,4,6-trihydroxy-3-methyl-5-acetylbenzyl)-8-cinnamoyl-1,2-chromene]
IC50 (PKCδ): 3 to 6 µM
effect on currents (Kv7.2): no significant effect
EC50 (Kv7.4): 0.148 µM
effect on currents (Kv7.4; Kv7.4, different concentrations): significant robust activation
potency on Kv7.4 relative to Kv7.1/KCNE1 (Kv7.4; more potent on Kv7.4 than on cardiac and epithelial Kv7.1/KCNE1): about 30 fold
effect on currents (Kv7.5): no significant effect
EC50 (Kv7.1/KCNE1): 4.9 µM
effect on currents (Kv7.1/KCNE1; Kv7.1/KCNE1, different concentrations): significant robust activation
effect on currents (Kv7.3): no significant effect
EC50 (Kv7.1): 1.48 µM
effect on currents (Kv7.1; Kv7.1, different concentrations): significant robust activation
IC50 (other PKC isozymes): 30 to 100 µM
